Measurements from patent US11566022B2, “3-(5-methoxy-1-oxoisoindolin-2-yl)piperidine-2,6-dione derivatives and uses thereof” (NOVARTIS AG, priority 2019, dated 2023).
Read-outs that look alike come from different tables or passages of the source.

Molecular target: HiBit-WIZ fusion protein (Homo sapiens, UniProt O95785+Q96SW2)
Experiment: Quantification of WIZ protein levels in HiBit tag fusion protein assay (WIZ HiBit assay in 293T cells)
Assay type: cell-based
Set-up: Dmax: dose or concentration left out as unconfirmed
Conditions: for remaining activity at up to 25 µM / WIZ Amax: DMSO-normalized, curve-fitted percentage of WIZ-HiBit remaining at 25 uM; for remaining activity at up to 25 µM: read-out: WIZ Amax; for DC50: WIZ HiBit assay in 293T cells, 10-point, 5-fold dose response, highest concentration 25 μM, about 18 hours, read-out: WIZ AC50; for % degradation of WIZ (100-Amax): at 25 uM
[1] = HEK-293T, 100 minus Amax, 293T cells, read-out: % degradation of WIZ (100-Amax)

Sequence of HiBit-WIZ fusion protein (O95785 whole entry, the tested form may be a part): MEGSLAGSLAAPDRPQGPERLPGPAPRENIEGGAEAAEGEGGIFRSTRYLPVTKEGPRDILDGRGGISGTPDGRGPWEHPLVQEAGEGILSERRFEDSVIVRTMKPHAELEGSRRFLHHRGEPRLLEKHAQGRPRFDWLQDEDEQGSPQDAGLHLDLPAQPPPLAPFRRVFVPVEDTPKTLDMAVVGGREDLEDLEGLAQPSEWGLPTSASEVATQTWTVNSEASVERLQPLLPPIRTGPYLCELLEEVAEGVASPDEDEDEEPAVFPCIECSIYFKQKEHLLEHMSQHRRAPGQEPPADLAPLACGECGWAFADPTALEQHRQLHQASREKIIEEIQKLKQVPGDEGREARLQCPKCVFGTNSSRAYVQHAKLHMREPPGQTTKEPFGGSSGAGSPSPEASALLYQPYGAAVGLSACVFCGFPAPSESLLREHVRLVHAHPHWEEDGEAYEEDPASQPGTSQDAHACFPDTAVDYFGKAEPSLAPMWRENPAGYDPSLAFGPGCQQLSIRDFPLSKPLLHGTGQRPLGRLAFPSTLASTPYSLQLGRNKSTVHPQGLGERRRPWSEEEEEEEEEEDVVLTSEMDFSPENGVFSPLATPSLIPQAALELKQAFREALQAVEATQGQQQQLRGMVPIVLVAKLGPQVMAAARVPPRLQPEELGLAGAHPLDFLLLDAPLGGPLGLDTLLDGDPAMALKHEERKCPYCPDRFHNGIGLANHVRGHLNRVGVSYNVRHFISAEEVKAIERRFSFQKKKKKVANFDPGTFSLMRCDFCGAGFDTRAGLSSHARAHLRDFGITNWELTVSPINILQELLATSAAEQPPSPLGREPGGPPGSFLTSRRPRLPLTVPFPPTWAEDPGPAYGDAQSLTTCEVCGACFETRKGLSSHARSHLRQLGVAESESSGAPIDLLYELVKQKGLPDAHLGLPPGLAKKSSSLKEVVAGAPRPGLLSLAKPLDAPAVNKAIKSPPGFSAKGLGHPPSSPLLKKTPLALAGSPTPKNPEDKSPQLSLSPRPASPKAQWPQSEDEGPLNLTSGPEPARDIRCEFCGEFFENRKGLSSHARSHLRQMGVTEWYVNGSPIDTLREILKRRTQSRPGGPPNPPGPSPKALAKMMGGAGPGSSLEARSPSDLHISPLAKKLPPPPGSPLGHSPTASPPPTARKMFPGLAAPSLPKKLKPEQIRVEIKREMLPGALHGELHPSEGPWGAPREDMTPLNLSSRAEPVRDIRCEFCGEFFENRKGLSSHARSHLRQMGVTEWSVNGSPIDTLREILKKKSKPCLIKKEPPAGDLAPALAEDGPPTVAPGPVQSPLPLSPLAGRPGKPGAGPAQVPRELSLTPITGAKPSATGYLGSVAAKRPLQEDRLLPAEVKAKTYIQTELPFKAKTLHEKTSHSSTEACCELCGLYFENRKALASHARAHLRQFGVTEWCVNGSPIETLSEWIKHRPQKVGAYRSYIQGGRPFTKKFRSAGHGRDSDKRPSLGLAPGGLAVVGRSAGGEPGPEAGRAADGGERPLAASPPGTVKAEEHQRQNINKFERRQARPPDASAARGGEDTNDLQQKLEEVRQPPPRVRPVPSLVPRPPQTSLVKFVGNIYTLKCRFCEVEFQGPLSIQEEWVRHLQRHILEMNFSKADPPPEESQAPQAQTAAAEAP
Sequence of HiBit-WIZ fusion protein (Q96SW2 whole entry, the tested form may be a part): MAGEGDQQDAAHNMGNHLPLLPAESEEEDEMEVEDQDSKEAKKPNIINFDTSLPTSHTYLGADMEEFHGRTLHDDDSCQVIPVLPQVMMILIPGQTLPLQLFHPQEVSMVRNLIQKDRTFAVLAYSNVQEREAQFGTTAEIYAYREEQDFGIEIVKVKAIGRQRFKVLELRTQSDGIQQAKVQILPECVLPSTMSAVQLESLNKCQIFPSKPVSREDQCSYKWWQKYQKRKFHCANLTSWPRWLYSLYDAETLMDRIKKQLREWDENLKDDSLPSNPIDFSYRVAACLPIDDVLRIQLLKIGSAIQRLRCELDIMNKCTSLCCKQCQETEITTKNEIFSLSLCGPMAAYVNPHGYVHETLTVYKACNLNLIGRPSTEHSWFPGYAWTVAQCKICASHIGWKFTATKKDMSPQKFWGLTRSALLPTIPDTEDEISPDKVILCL
Sequence of HiBit-WIZ fusion protein (Q16531 whole entry partner, the tested form may be a part): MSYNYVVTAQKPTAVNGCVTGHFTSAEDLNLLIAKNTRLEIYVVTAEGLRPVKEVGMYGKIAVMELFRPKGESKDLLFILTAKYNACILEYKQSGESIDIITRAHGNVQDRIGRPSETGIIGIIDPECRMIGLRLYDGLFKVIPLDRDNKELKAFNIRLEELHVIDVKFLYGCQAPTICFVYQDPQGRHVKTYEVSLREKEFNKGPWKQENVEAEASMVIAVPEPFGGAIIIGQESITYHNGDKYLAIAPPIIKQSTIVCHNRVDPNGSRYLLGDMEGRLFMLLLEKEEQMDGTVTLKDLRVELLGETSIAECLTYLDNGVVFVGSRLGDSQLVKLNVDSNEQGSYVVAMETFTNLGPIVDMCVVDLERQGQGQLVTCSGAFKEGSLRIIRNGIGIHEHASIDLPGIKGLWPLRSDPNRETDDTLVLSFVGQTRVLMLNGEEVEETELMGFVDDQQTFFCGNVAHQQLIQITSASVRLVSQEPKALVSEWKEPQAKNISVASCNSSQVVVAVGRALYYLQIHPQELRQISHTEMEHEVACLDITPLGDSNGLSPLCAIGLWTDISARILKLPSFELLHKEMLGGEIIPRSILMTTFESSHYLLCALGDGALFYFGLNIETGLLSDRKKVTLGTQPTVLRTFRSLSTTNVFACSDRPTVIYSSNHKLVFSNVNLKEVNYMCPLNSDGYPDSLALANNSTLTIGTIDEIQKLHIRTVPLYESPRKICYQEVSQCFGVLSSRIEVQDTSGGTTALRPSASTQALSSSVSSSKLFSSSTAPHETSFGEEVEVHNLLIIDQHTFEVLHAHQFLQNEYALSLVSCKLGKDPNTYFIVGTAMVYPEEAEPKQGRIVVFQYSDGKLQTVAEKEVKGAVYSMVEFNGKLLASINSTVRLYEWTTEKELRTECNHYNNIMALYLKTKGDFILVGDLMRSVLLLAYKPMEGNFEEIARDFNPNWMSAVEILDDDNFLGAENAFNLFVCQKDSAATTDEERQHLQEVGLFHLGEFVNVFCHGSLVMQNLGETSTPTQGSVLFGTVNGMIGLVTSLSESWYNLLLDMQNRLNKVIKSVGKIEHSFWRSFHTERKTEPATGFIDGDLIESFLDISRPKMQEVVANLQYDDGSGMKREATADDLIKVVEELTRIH

Dmax [1] [%]	remaining activity at up to 25 µM (HEK-293T, 293T cells) [%]	DC50 [nM]	% degradation of WIZ (100-Amax) (100 minus Amax, 293T cells) [%]	WIZ Amax (293T cells) [%]	Compound	Dmax (HEK-293T, read-out: % degradation of WIZ (100-Amax), 100 minus Amax, 293T cells) [%]	remaining activity (HEK-293T, read-out: WIZ Amax, DMSO-normalized, curve-fitted percentage of WIZ-HiBit remaining at 25 uM, 293T cells) [%]
67.5	32.5	0.92	–	–	O=C1CCC(N2Cc3cc(OC[C@H]4CCCCN4Cc4ccc(C5CCN(CC6COC6)CC5)cc4)ccc3C2=O)C(=O)N1 (stereo partly drawn) [Compound I-203, 3-(5-(((R)-1-(4-(1-(oxetan-3-ylmethyl)piperidin-4-yl)benzyl)piperidin-2-yl)methoxy)-1-oxoisoindolin-2-yl)piperidine-2,6-dione]	–	–
93.7	6.3	76	–	–	O=C1CCC(N2Cc3cc(OC[C@H]4CCCCN4Cc4cc(F)c(F)c(F)c4)ccc3C2=O)C(=O)N1 (stereo partly drawn) [Compound I-144]	–	–
85.2	14.8	179	–	–	Cn1nnc2cc(CN3CCCC[C@@H]3COc3ccc4c(c3)CN(C3CCC(=O)NC3=O)C4=O)ccc21 (stereo partly drawn) [Compound I-50y]	–	–
26.4	73.6	> 25000	–	–	CCN1CCCC(C)(C)C1COc1ccc2c(c1)CN(C1CCC(=O)NC1=O)C2=O (single isomer, unassigned) [Compound I-17, 3-(5-((1-ethyl-3,3-dimethylpiperidin-2-yl)methoxy)-1-oxoisoindolin-2-yl)piperidine-2,6-dione]	–	–
80.5	19.5	19	–	–	O=C1CCC(N2Cc3cc(OC[C@H]4CCCCN4Cc4ccc5ocnc5c4)ccc3C2=O)C(=O)N1 (stereo partly drawn) [Compound I-201, 3-(5-(((R)-1-(benzo[d]oxazol-5-ylmethyl)piperidin-2-yl)methoxy)-1-oxoisoindolin-2-yl)piperidine-2,6-dione]	–	–
89.5	10.5	170	–	–	O=C1CCC(N2Cc3cc(OC[C@H]4CCCCN4Cc4ccc(F)cn4)ccc3C2=O)C(=O)N1 (stereo partly drawn) [Compound I-115]	–	–
58.7	41.3	83	–	–	O=C1CCC(N2Cc3cc(OC[C@H]4CCCCN4CC4COC4)ccc3C2=O)C(=O)N1 (stereo partly drawn) [Compound I-202]	–	–
73.5	26.6	2	–	–	CC(C)(C)N1CCN(c2ccc(CN3CCCC[C@@H]3COc3ccc4c(c3)CN(C3CCC(=O)NC3=O)C4=O)cc2)CC1 (stereo partly drawn) [Compound I-229, 3-(5-(((R)-1-(4-(4-(tert-butyl)piperazin-1-yl)benzyl)piperidin-2-yl)methoxy)-1-oxoisoindolin-2-yl)piperidine-2,6-dione]	–	–
17.1	82.9	> 25000	–	–	O=C1CCC(N2Cc3cc(OC[C@@H]4CCCCN4C(=O)c4csc(N5CCOCC5)n4)ccc3C2=O)C(=O)N1 (stereo partly drawn) [Compound I-72e]	–	–
–	–	120	55.68	44.32	O=C1CCC(N2Cc3cc(OC[C@H]4CCCCN4CC4CCOC4)ccc3C2=O)C(=O)N1 (single isomer, unassigned) [Compound I-213]	–	–
2.9	97.1	> 25000	–	–	N#CC1(c2cc(C(=O)N3CCCC[C@H]3COc3ccc4c(c3)CN(C3CCC(=O)NC3=O)C4=O)ccn2)CC1 (stereo partly drawn) [Compound I-72y]	–	–
28.8	71.2	> 25000	–	–	Cc1nnc(-c2ccc(CN3CCCC[C@H]3COc3ccc4c(c3)CN(C3CCC(=O)NC3=O)C4=O)cc2)o1 (stereo partly drawn) [Compound I-50i]	–	–
46.6	53.4	> 25000	–	–	CN(C)c1ncc(CN2CCCC[C@H]2COc2ccc3c(c2)CN(C2CCC(=O)NC2=O)C3=O)cn1 (stereo partly drawn) [Compound I-50m]	–	–

The next lines start with the compound.

Compound	Dmax [1] [%]	remaining activity at up to 25 µM (HEK-293T, 293T cells) [%]	DC50 [nM]	% degradation of WIZ (100-Amax) (100 minus Amax, 293T cells) [%]	WIZ Amax (293T cells) [%]	Dmax (HEK-293T, read-out: % degradation of WIZ (100-Amax), 100 minus Amax, 293T cells) [%]	remaining activity (HEK-293T, read-out: WIZ Amax, DMSO-normalized, curve-fitted percentage of WIZ-HiBit remaining at 25 uM, 293T cells) [%]
C[C@H]1CC[C@H](CC(=O)N2CCCC[C@H]2COc2ccc3c(c2)CN(C2CCC(=O)NC2=O)C3=O)CC1 (stereo partly drawn) [Compound I-72do]	23.3	76.7	> 25000	–	–	–	–
O=C1CCC(N2Cc3cc(OC[C@H]4CCCCN4Cc4cc(-n5nnnc5C(F)(F)F)ccc4O)ccc3C2=O)C(=O)N1 (stereo partly drawn) [Compound I-50ei]	31.4	68.6	> 25000	–	–	–	–
CCN1CCN(c2ccc(F)cc2CN2CCCC[C@@H]2COc2ccc3c(c2)CN(C2CCC(=O)NC2=O)C3=O)CC1 (stereo partly drawn) [Compound I-169, 3-(5-(((R)-1-(2-(4-ethylpiperazin-1-yl)-5-fluorobenzyl)piperidin-2-yl)methoxy)-1-oxoisoindolin-2-yl)piperidine-2,6-dione]	–	–	34	–	–	84.6	15.4
Cn1c(CN2CCCC[C@@H]2COc2ccc3c(c2)CN(C2CCC(=O)NC2=O)C3=O)nc2ccccc21 (stereo partly drawn) [Compound I-50cw]	39	61	> 25000	–	–	–	–
Cc1nnsc1CN1CCCC[C@@H]1COc1ccc2c(c1)CN(C1CCC(=O)NC1=O)C2=O (stereo partly drawn) [Compound I-50ep]	12.4	87.6	> 25000	–	–	–	–
O=C1CCC(N2Cc3cc(OC[C@@H]4CCCCN4C(=O)c4cccnc4N4CCCC4)ccc3C2=O)C(=O)N1 (stereo partly drawn) [Compound I-72gb]	23.9	76.1	> 25000	–	–	–	–
O=C1CCC(N2Cc3cc(OC[C@H]4CCCCN4Cc4ccnc5[nH]ccc45)ccc3C2=O)C(=O)N1 (stereo partly drawn) [Compound I-50dk]	87	13	147	–	–	–	–
O=C1CCC(N2Cc3cc(OC[C@@H]4CCCCN4Cc4c[nH]cn4)ccc3C2=O)C(=O)N1 (stereo partly drawn) [Compound I-50al]	54.1	45.9	> 25000	–	–	–	–
CCn1cc(CN2CCCC[C@@H]2COc2ccc3c(c2)CN(C2CCC(=O)NC2=O)C3=O)cn1 (stereo partly drawn) [Compound I-50eo]	94	6	74	–	–	–	–
NS(=O)(=O)c1cc(CN2CCCC[C@H]2COc2ccc3c(c2)CN(C2CCC(=O)NC2=O)C3=O)ccc1Cl (stereo partly drawn) [Compound I-50bd]	41.1	58.9	> 25000	–	–	–	–
CCN1C2CCC(C2)C1COc1ccc2c(c1)CN(C1CCC(=O)NC1=O)C2=O (single isomer, unassigned) [I-255 (Isomer 4), 3-(5-((endo-2-ethyl-2-azabicyclo[2.2.1]heptan-3-yl)methoxy)-1-oxoisoindolin-2-yl)piperidine-2,6-dione]	–	–	34	73.0	27.0	–	–
Cc1noc(C)c1CN1CCCC[C@@H]1COc1ccc2c(c1)CN(C1CCC(=O)NC1=O)C2=O (stereo partly drawn) [Compound I-50el]	30.3	69.7	> 25000	–	–	–	–
O=C1CCC(N2Cc3cc(OC[C@H]4CCCCN4Cc4ncccc4O)ccc3C2=O)C(=O)N1 (stereo partly drawn) [Compound I-50ej]	17.2	82.8	> 25000	–	–	–	–
Cn1ccc2c(CN3CCCC[C@@H]3COc3ccc4c(c3)CN(C3CCC(=O)NC3=O)C4=O)cccc21 (stereo partly drawn) [Compound I-50dy]	96.6	3.4	19	–	–	–	–
O=C(O)Cn1cnc(CN2CCCC[C@@H]2COc2ccc3c(c2)CN(C2CCC(=O)NC2=O)C3=O)c1 (stereo partly drawn) [Compound I-50da]	65.1	34.9	5130	–	–	–	–
CN(C)c1cccc(C(=O)N2CCCC[C@H]2COc2ccc3c(c2)CN(C2CCC(=O)NC2=O)C3=O)c1 (stereo partly drawn) [Compound I-72gg]	24	76	> 25000	–	–	–	–
Cc1nc(-c2cccc(CN3CCCC[C@H]3COc3ccc4c(c3)CN(C3CCC(=O)NC3=O)C4=O)c2)no1 (stereo partly drawn) [Compound I-50bb]	56.8	43.2	18300	–	–	–	–
COc1ccc(-c2cc(C(=O)N3CCCC[C@H]3COc3ccc4c(c3)CN(C3CCC(=O)NC3=O)C4=O)[nH]n2)cc1 (stereo partly drawn) [Compound I-72ai]	41.6	58.4	> 25000	–	–	–	–
CCN(CC)c1ccc(CN2CCCC[C@@H]2COc2ccc3c(c2)CN(C2CCC(=O)NC2=O)C3=O)cn1 (stereo partly drawn) [Compound I-50eb]	98.5	1.5	2	–	–	–	–
O=C1CCC(N2Cc3cc(OC[C@@H]4CCCCN4Cc4cn[nH]c4)ccc3C2=O)C(=O)N1 (stereo partly drawn) [Compound I-50cc]	71.7	28.3	5970	–	–	–	–
CCN1C2CCC(C2)C1COc1ccc2c(c1)CN(C1CCC(=O)NC1=O)C2=O (single isomer, unassigned) [I-255 (Isomer 1), 3-(5-((endo-2-ethyl-2-azabicyclo[2.2.1]heptan-3-yl)methoxy)-1-oxoisoindolin-2-yl)piperidine-2,6-dione]	–	–	12	73.2	26.8	–	–
CCCCc1cnc(C(=O)N2CCCC[C@H]2COc2ccc3c(c2)CN(C2CCC(=O)NC2=O)C3=O)nc1OC (stereo partly drawn) [Compound I-72aw]	60.4	39.6	8520	–	–	–	–
O=C1CCC(N2Cc3cc(OC[C@@H]4CCCCN4CC4CCN(C(=O)OCc5ccccc5)CC4)ccc3C2=O)C(=O)N1 (stereo partly drawn) [Compound I-50cr]	52.9	47.1	> 25000	–	–	–	–
CC(C)Cn1cc(CN2CCCC[C@H]2COc2ccc3c(c2)CN(C2CCC(=O)NC2=O)C3=O)cn1 (stereo partly drawn) [Compound I-50ci]	83.2	16.8	306	–	–	–	–
Nc1ncc(CN2CCCC[C@H]2COc2ccc3c(c2)CN(C2CCC(=O)NC2=O)C3=O)cn1 (stereo partly drawn) [Compound I-50be]	41.9	58.1	> 25000	–	–	–	–
O=C1CCC(N2Cc3cc(OC[C@H]4CCCCN4Cc4cnn(C5CCCCC5)c4)ccc3C2=O)C(=O)N1 (stereo partly drawn) [Compound I-50ec]	100	0	17	–	–	–	–
